Results published in paper PMC8606745 (Frontiers in Microbiology, 2021).
Where two headings read alike, the source gives them in different places. Square brackets hold non-standard residues; d marks the D form. Peptide text beside a SMILES is read from it. * marks the point of attachment. Hexanoyl = CCCCCC(=O)*

Experiments:
[1] = tested on: X. fastidiosa subsp. fastidiosa IVIA 5387.2; assay type: cell-based, Xylella fastidiosa
[2] = tested on: X. fastidiosa subsp. fastidiosa IVIA 5387.2; assay type: cell-based, Xylella fastidiosa; remark: listed apart in the source
[3] = tested on: X. fastidiosa subsp. fastidiosa IVIA 5387.2
Gram-negative bacteria [4] = tested on: Gram-negative bacteria; design: key: Xf: Xylella fastidiosa; Ec: Escherichia coli; Pa: Pseudomonas aeruginosa; Ab: Acinetobacter baumannii; Kp: Klebsiella pneumoniae; Bc: Burkholderia cenocepacia; Se: Salmonella enterica subsp. enterica; Sp: Salmonella pullorum; –: low or no activity; conditions: cited from earlier work
Gram-negative bacteria [5] = tested on: Gram-negative bacteria; design: key: Xf: Xylella fastidiosa; Ec: Escherichia coli; Pa: Pseudomonas aeruginosa; Ab: Acinetobacter baumannii; Kp: Klebsiella pneumoniae; Bc: Burkholderia cenocepacia; Se: Salmonella enterica subsp. enterica; Sp: Salmonella pullorum; –: low or no activity; conditions: cited from earlier work; remark: listed apart in the source

Row | Molecule | Biofilm formation Level (antibiofilm activity) ([1]; 50 µM) | Biofilm formation Ratio (treatment/NTC) ([1]; 50 µM) | Planktonic cells Ratio (treatment/NTC) ([1]; 50 µM) | attached biofilm cells [2] [%] | biofilm detached cells [2] [%] | planktonic cells [2] [%] | Bactericidal activity: Reduction in viability (Log N0/N) ([3]; 50 µM) | Hemolysis (horse erythrocytes; 150 µM) [%] | Hemolysis (horse erythrocytes; 250 µM) [%] | Hemolysis (horse erythrocytes; 375 µM) [%] | Described activity: Antibacterial (Gram-negative bacteria [4]) | Described activity: Antibiofilm (Gram-negative bacteria [5]) | Biofilm formation Level (antibiofilm activity) [1] | Biofilm formation Ratio (treatment/NTC) [1] | Planktonic cells Ratio (treatment/NTC) [1] | Bactericidal activity: Reduction in viability (Log N0/N) [3] [Log N0/N] | Effect on X. fastidiosa growth in the antibiofilm test ([1]; 50 µM)
1 | CCCCCC(=O)N[C@H](C(=O)N[C@@H](CC(C)C)C(=O)N1CCC[C@H]1C(=O)N[C@H](Cc1ccccc1)C(=O)N[C@@H](CCCCN)C(=O)N[C@H](Cc1ccccc1)C(=O)N1CCC[C@H]1C(=O)N[C@H](Cc1ccccc1)C(=O)N[C@H](Cc1ccccc1)C(=O)N1CCC[C@H]1C(=O)N[C@H](Cc1ccccc1)C(=O)N[C@@H](CCCNC(=N)N)C(=O)N[C@@H](CCCNC(=N)N)C(N)=O)[C@@H](C)CC [BP527] (Hexanoyl-ILP[dF]K[dF]P[dF][dF]P[dF]RR-NH2) | High (key: High: high antibiofilm activity (ratio of biofilm formation from 0.01 to 0.2); Moderate: moderate activity (ratio from 0.29 to 0.47); Low: low activity (ratio from 0.72 to 0.77)) | 0.18 ± 0.02 | 0.58 ± 0.12 | 12.5 | 45.7 | 41.7 | 0.49 ± 0.04 | 62.2 ± 4.4 | 73.6 ± 1.1 | 100.0 ± 2.6 |  |  |  |  |  |  | 
2 | CC[C@H](C)[C@H](NC(=O)[C@H](CCCNC(=N)N)NC(=O)[C@@H](N)Cc1ccccc1)C(=O)N[C@@H](CCCNC(=N)N)C(=O)N[C@H](C(=O)N[C@@H](CCCNC(=N)N)C(=O)N[C@H](C(N)=O)C(C)C)C(C)C [FV7] (H-FRIRVRV-NH2; N-terminus assumed) | High (key: High: high antibiofilm activity (ratio of biofilm formation from 0.01 to 0.2); Moderate: moderate activity (ratio from 0.29 to 0.47); Low: low activity (ratio from 0.72 to 0.77)) | 0.20 ± 0.01 | 1.33 ± 0.17 |  |  |  | 0.07 ± 0.14 | 3.7 ± 0.4 | 4.4 ± 0.3 | 9.5 ± 1.4 | Ec, Pa, Se, Sp | Ec, Pa |  |  |  |  | 
3 | CC[C@H](C)[C@H](NC(=O)[C@H](CCCNC(=N)N)NC(=O)[C@H](Cc1ccccc1)NC(=O)[C@H](CCCNC(=N)N)NC(=O)[C@@H](N)CCCCN)C(=O)N[C@@H](CCCNC(=N)N)C(=O)N[C@H](C(=O)N[C@@H](CCCNC(=N)N)C(=O)N[C@H](C(=O)N[C@H](C(=O)N[C@@H](CCCNC(=N)N)C(=O)N[C@@H](CCCCN)C(N)=O)[C@@H](C)CC)C(C)C)C(C)C [HH15] (H-KRFRIRVRVIRK-NH2) |  |  |  |  |  |  |  | 2.3 ± 0.3 | 4.5 ± 1.9 | 4.0 ± 0.4 | Pa, Bc | Pa, Bc | High (key: High: high antibiofilm activity (ratio of biofilm formation from 0.01 to 0.2); Moderate: moderate activity (ratio from 0.29 to 0.47); Low: low activity (ratio from 0.72 to 0.77)) | 0.14 ± 0.01 | 2.50 ± 0.05 | 0.21 ± 0.02 | 
4 | CC[C@H](C)[C@H](NC(=O)CN)C(=O)N[C@@H](CC(C)C)C(=O)NCC(=O)N[C@@H](CCCCN)C(=O)N[C@@H](CC(C)C)C(=O)N[C@@H](Cc1c[nH]c2ccccc12)C(=O)N[C@@H](CCC(=O)O)C(=O)NCC(=O)N[C@H](C(=O)N[C@@H](CCCCN)C(=O)N[C@@H](CO)C(=O)N[C@H](C(=O)N[C@@H](Cc1ccccc1)C(N)=O)[C@@H](C)CC)C(C)C [HP1404] (H-GILGKLWEGVKSIF-NH2) |  |  |  |  |  |  |  | 100.0 ± 0.5 | 100.0 ± 3.9 | 100.0 ± 0.7 | Pa | Pa | High (key: High: high antibiofilm activity (ratio of biofilm formation from 0.01 to 0.2); Moderate: moderate activity (ratio from 0.29 to 0.47); Low: low activity (ratio from 0.72 to 0.77)) | 0.15 ± 0.01 | 2.75 ± 0.02 | 0.00 ± 0.12 | 
5 | CC[C@H](C)[C@H](NC(=O)[C@H](CCCNC(=N)N)NC(=O)[C@@H](NC(=O)[C@H](C)NC(=O)[C@@H](NC(=O)[C@@H](NC(=O)[C@H](CC(C)C)NC(=O)[C@H](CCCNC(=N)N)NC(=O)[C@@H](N)C(C)C)[C@@H](C)CC)C(C)C)C(C)C)C(=O)N[C@@H](Cc1c[nH]c2ccccc12)C(=O)N[C@@H](CCCNC(=N)N)C(=O)N[C@@H](CCCNC(=N)N)C(N)=O [IDR-1018] (H-VRLIVAVRIWRR-NH2; N-terminus and C-terminus assumed) | High (key: High: high antibiofilm activity (ratio of biofilm formation from 0.01 to 0.2); Moderate: moderate activity (ratio from 0.29 to 0.47); Low: low activity (ratio from 0.72 to 0.77)) | 0.06 ± 0.01 | 1.72 ± 0.07 |  |  |  | 1.80 ± 0.01 | 35.6 ± 4.4 | 43.0 ± 0.2 | 45.9 ± 4.9 | Kp, Ec | Pa, Ec, Ab, Kp, Se, Bc |  |  |  |  | 
6 | CC[C@H](C)[C@H](NC(=O)[C@H](CCCNC(=N)N)NC(=O)[C@H](Cc1c[nH]c2ccccc12)NC(=O)[C@H](CCC(N)=O)NC(=O)[C@@H](N)C(C)C)C(=O)N[C@@H](CCCNC(=N)N)C(=O)N[C@H](C(=O)N[C@@H](CCCNC(=N)N)C(=O)N[C@H](C(=O)N[C@H](C(=O)N[C@@H](CCCCN)C(=O)N[C@@H](CCCCN)C(N)=O)[C@@H](C)CC)C(C)C)C(C)C [Peptide 1026] (H-VQWRIRVRVIKK-NH2) |  |  |  | 0.7 | 19.8 | 79.5 |  |  |  |  |  |  | High (key: High: high antibiofilm activity (ratio of biofilm formation from 0.01 to 0.2); Moderate: moderate activity (ratio from 0.29 to 0.47); Low: low activity (ratio from 0.72 to 0.77)) |  | 2.10 ± 0.05 | 1.03 ± 0.07 | 
7 | CC[C@H](C)[C@H](NC(=O)[C@H](CCCNC(=N)N)NC(=O)[C@H](CCCNC(=N)N)NC(=O)[C@H](CC(C)C)NC(=O)[C@H](Cc1c[nH]c2ccccc12)NC(=O)[C@H](C)NC(=O)[C@H](CCCCN)NC(=O)[C@@H](NC(=O)[C@H](CCCNC(=N)N)NC(=O)[C@H](CCCNC(=N)N)NC(=O)[C@H](CC(C)C)NC(=O)[C@@H](N)Cc1c[nH]c2ccccc12)[C@@H](C)CC)C(=O)N[C@@H](CCCCN)C(=O)N[C@@H](C)C(=O)O [RR4-OH] | High (key: High: high antibiofilm activity (ratio of biofilm formation from 0.01 to 0.2); Moderate: moderate activity (ratio from 0.29 to 0.47); Low: low activity (ratio from 0.72 to 0.77)) | 0.09 ± 0.01 | 1.87 ± 0.10 |  |  |  | 1.94 ± 0.03 | 3.2 ± 1.0 | 9.8 ± 3.7 | 17.8 ± 0.3 | Pa, Ab | Pa, Ab |  |  |  |  | 
8 | KRIVKLILKWLR-NH2 [KR-12-a5] |  |  |  |  |  |  | 1.40 ± 0.07 | 79.0 ± 0.6 | 96.1 ± 1.8 | 100.0 ± 1.7 | Ec, Pa, Se | Pa |  |  |  |  | affected X. fastidiosa’s growth
